Experimental data published in patent publication US9988626B2, “Neurocalcin delta inhibitors and therapeutic and non-therapeutic uses thereof” (Universität Zu Köln, priority 2013, dated 2018).

Test system: zebrafish embryos
Assay: Whole cell current clamp recordings of endplate potentials in zebrafish ventral fast muscle cells
Format: in vivo
Experimental: Experiments were conducted with zebrafish embryos (wildtype (wt) contras, smn-, ncald-, and smn/ncald-morphants) 72 hours post fertilization. The animals were anesthetized with 0.02% tricaine (in saline; E10521, Sigma-Aldrich, Taufkirchen, Germany) for 1-2 min and then rinsed with saline. The saline contained (in mM): 134 NaCl, 2.9 KCl, 2.1 CaCl2, 1.2 MgCl2, 10 HEPES, 10 Glucose adjusted to pH 7.8 with NaOH. The fish were decapitated and pinned under saline in a Sylgard-coated (SYLG184, Dow Coming, Midland, Mich.) recording chamber (˜3 ml volume). The skin was peeled off using a sharp tungsten pin and fine forceps and the preparation was incubated in 3 M formamide (in saline; 6749.1, Carl Roth GmbH, Karlsruhe) for 2 min to prevent muscle contractions. After rinsing the preparation, the superficial layer of ventral slow muscle cells was removed by gently scratching with a fine tungsten pin to expose deeper lying fast skeletal muscle cells. Remaining superficial slow muscles in the segments of interest were removed with a low resistance pipette (˜2 MΩ). […] Muscle cells were visualized with a fixed-stage upright microscope (Zeiss Axio Examiner, Carl Zeiss Microscopy GmbH, Jena, Germany), using a 40× water immersion objective (W Plan-Apochromat, 40×; 1.0 numerical aperture; 2.5 mm working distance; Zeiss) with infrared-differential interference contrast (Dodt and Zieglgansberger 1990) and fluorescence optics. […]
Whole-cell patch clamp recordings in current-clamp mode were performed with an EPC10 patch-clamp amplifier (HEKA-Elektronik, Lambrecht, Germany) that was controlled by the program Patchmaster (version 2.53, HEKA-Elektronik) running under Windows. […] The calculated liquid junction potential between intracellular and extracellular solution of 5.8 mV (calculated with Patcher's-Power-Tools plug-in from http://www.mpibpc.gwdg.de/abteilungen/140/software/index.html for Igor Pro 6 [Wavemetrics, Portland, Oreg., USA]) was also compensated. Whole-cell capacitance was determined by using the capacitance compensation (C-slow) of the EPC10. […]

smn MO: previously published morpholino knocking down zebrafish smn, CGACATCTTCTGCACCATTGGC (all phosphorodiamidate morpholino (PMO))
Frequency of large NMDA-induced EPP / action potentials (72 hpf zebrafish, ventral fast muscle cells, NMDA (100 μM) stimulation): 0.37±0.17 Hz
Spontaneous mEPP frequency at rest (72 hpf zebrafish, ventral fast muscle cells, without stimulation): 0.32±0.16 Hz
Resting and NMDA induced EPP activity (zebrafish morphants compared to wild type): significant reduction of the mEPP and the EPP rate
